Data published in PubChem BioAssay AID463199 (Broad Institute, 2010).
The source made the active and inactive calls.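 Rule for the calls: active = AC50, the dose giving half-maximal effect, exceeds a fixed cutoff for a compound that rescues yeast growth under heat; inactive = the rest, inconclusive results apart.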

System: S. cerevisiae Burl-1 ts mutant growth, BacTiter-Glo, 38.5C 24 h
Test: restored growth of temperature-sensitive Burl-1 yeast – whole organism, S. cerevisiae, Burl-1 ts mutant, luminescence, counter-screen for SUMOylation pathway inhibitor project, dose response (AID 463199)

| Structure (SMILES) | AC50 |
| --- | --- |
| Cc1nc2sc(C(c3ccccc3)N3CCC(O)CC3)c(O)n2n1 (configuration not stated) | > 42 µM (inactive) |
| CC(C)Cc1cc(CN2CCC(CO)(Cc3ccccc3)CC2)[nH]n1 | > 42 µM (inactive) |
| COc1cc2c(cc1NC(=O)c1cccnc1)oc1ccccc12 | > 42 µM (inactive) |
| COC(=O)c1sccc1NC(=S)N1CCCCC1 | > 42 µM (inactive) |
| O=C(Cc1cccs1)Nc1nnc(-c2ccncc2)s1 | > 42 µM (inactive) |
| O=C(Nc1ncccn1)c1ccc(C(F)(F)F)cc1 | > 42 µM (inactive) |
| CC(C)(C)C(=O)NC1CCN(CC(=O)Nc2ccc3c(c2)OCO3)CC1 | > 42 µM (inactive) |
| N#CC1=C(N)Oc2c(ccc3ccccc23)C1c1cccs1 (configuration not stated) | > 42 µM (inactive) |
| O=C(Cc1ccccc1)N1CCCC1c1ccccc1 (configuration not stated) | > 42 µM (inactive) |
| CC1=CC(=O)C=CC1(C)C(Cl)(Cl)Cl (configuration not stated) | > 42 µM (inactive) |
| CC(OC(=O)c1cnccn1)C(=O)c1ccccc1 (configuration not stated) | > 42 µM (inactive) |
| CCCOC(=O)c1ccc(O)c(OC)c1 | > 42 µM (inactive) |
| Cc1ccccc1Nc1cc(=O)oc2ccccc12 | > 42 µM (inactive) |
| CCN(CC)c1ccc2c(C)c(CN3CCOCC3)c(=O)oc2c1 | > 42 µM (inactive) |
| CC(=O)Nc1nn(C)c2nc3ccc(C)cc3cc12 | > 42 µM (inactive) |
| COc1cccc(/C=C/C(=O)OCC(=O)Nc2ccc(Cl)cn2)c1 | > 42 µM (inactive) |
| C=CCNc1nnc(SC2CC(=O)N(c3ccc(OCCC)cc3)C2=O)s1 (configuration not stated) | > 42 µM (inactive) |
| O=C1c2cc(N3CCCC3)c([N+](=O)[O-])cc2C(=O)N1c1ccccc1 | > 42 µM (inactive) |
| COc1cc(NC(=O)CN2CCN(CC(=O)Nc3ccccc3OC)CC2)cc(OC)c1 | > 42 µM (inactive) |
| COc1ccc(OCC(=O)O/N=C(\N)Cc2ccc(Cl)cc2)cc1 | > 42 µM (inactive) |
| CCN(C(=O)Cn1nc(C)c([N+](=O)[O-])c1C)c1c(N)n(Cc2ccccc2)c(=O)[nH]c1=O | > 42 µM (inactive) |
| Cc1nnc(NC(=O)c2ccc(-c3cccc(C(F)(F)F)c3)o2)s1 | > 42 µM (inactive) |
| COC(=O)CN1C(=O)c2cccc3cccc1c23 | > 42 µM (inactive) |
| c1ccc(-c2nc(NCc3ccco3)c3ccccc3n2)nc1 | > 42 µM (inactive) |

| Structure (SMILES) | AC50 |
| --- | --- |
| Cc1c(C(=O)N2CCOCC2)c(S(=O)(=O)Nc2cccc(Br)c2)c(C)n1C | > 42 µM (inactive) |
| CCC1(c2ccccc2)NC(=O)N(CC(=O)N(C)CC(=O)Nc2ccc(F)c(F)c2F)C1=O (configuration not stated) | > 42 µM (inactive) |
| N#CC(C#N)=C1C=CC=CN1/C(=C\c1ccccc1Cl)C(=O)c1ccccc1 | > 42 µM (inactive) |
| CCN(CC)CCNc1ncnc2c1[nH]c1ccc(OC)cc12 | > 42 µM (inactive) |
| CCOc1ccc2nc(CN3CCN(Cc4ccccc4OCC)C(CCO)C3)ccc2c1 (configuration not stated) | > 42 µM (inactive) |
| CCOC(=O)c1cnc2oc3ccccc3n2c1=O | > 42 µM (inactive) |
| COc1ccc(NC(=O)CN(C)C(=O)/C=C/c2cn(-c3ccccc3)nc2-c2ccc(F)cc2)cc1 | > 42 µM (inactive) |
| O=C(COC(=O)c1ccccc1SCC(=O)N1CCCC1)NC1CCCCC1 | > 42 µM (inactive) |
| CC1=C(C(=O)N2CCOCC2)C(c2ccc(O)cc2)NC(=S)N1 (configuration not stated) | > 42 µM (inactive) |
| CCn1c(SC(=O)NC2CCCCC2)nnc1-c1cccs1 | > 42 µM (inactive) |
| O=c1oc2cc(S(=O)(=O)NCCCO)ccc2c2ccc(S(=O)(=O)NCCCO)cc12 | > 42 µM (inactive) |
| CCCOC(=O)C1=C(C)NC2=C(C(=O)CCC2)C1c1cccs1 (configuration not stated) | > 42 µM (inactive) |
| Cc1cc(C)c2c(=O)[nH]cnc2n1 | > 42 µM (inactive) |
| COc1ccc(C(=O)N2CCN(c3ccc(NC(=O)c4cccnc4)cc3)CC2)cc1 | > 42 µM (inactive) |
| Cc1ccc(N(CC(=O)Nc2cccc(C)c2)S(=O)(=O)c2cccc3nonc23)cc1 | > 21 µM (inactive) |
| CCCCC(=O)N/N=C(\C)CC(=O)Nc1cc(Cl)ccc1OC | > 42 µM (inactive) |
| COc1cc([C@@H]2CC=C(C(=O)O)[C@H](c3ccccc3F)N2S(=O)(=O)c2ccc(C)cc2)cc(OC)c1OC | > 42 µM (inactive) |
| O=C(Nc1nc2ccccc2s1)c1cccc(S(=O)(=O)N2CCc3ccccc32)c1 | > 42 µM (inactive) |
| CCOP(=O)(OCC)C(NC(=O)c1cccc([N+](=O)[O-])c1)C(Cl)(Cl)Cl (configuration not stated) | > 42 µM (inactive) |
| O=C(NNc1ccccc1)C(CCO)C(=O)NNc1ccccc1 | > 42 µM (inactive) |
| O=C(Nc1ccc2oc(-c3ccccc3F)nc2c1)c1ncn[nH]1 | > 42 µM (inactive) |
| CCCc1ccc(S(=O)(=O)NCCc2ccncc2)cc1 | > 42 µM (inactive) |
| O=C1C2C(c3ccccc3)CC=CC2[C@H](c2ccc3ccccc3c2)N1Cc1ccccc1 (some centres not stated) | > 42 µM (inactive) |
| CC(=O)c1ccc(C(=O)N2CCCC(N3CCN(c4ccc(F)cc4)CC3)C2)s1 (configuration not stated) | > 42 µM (inactive) |

| Structure (SMILES) | AC50 |
| --- | --- |
| Cc1c(C(=O)Nc2cccc(F)c2)cnn1-c1ccccc1 | > 42 µM (inactive) |
| O=C1NC2(CCCCO2)CO1 (configuration not stated) | > 42 µM (inactive) |
| CC(C)(C)C1c2[nH]c3ccccc3c2CCN1Cc1cccc(OCCO)c1 (configuration not stated) | > 42 µM (inactive) |
| Fc1ccc2c(c1)nnn2C1CCN(Cc2nnnn2C2CCCCC2)CC1 | > 42 µM (inactive) |
| CCCCn1c2nc3ccccc3nc2c2c(=O)n(CCC)cnc21 | > 42 µM (inactive) |
| COc1ccc(NC(=O)Cn2c(=O)cnc3ccccc32)cc1S(=O)(=O)N1CCCCC1 | > 42 µM (inactive) |
| Cc1cccc(Cn2c(C(=O)OC(C)C)cc3c2ccn3C)c1 | > 42 µM (inactive) |
| CC(C)Oc1ccc(CCC(=O)NNC(=O)c2ccccc2C(=O)O)cc1 | > 42 µM (inactive) |
| Cc1ccc(CNC(=O)CCn2cc(-c3ccc(C)cc3)nc2CCN)cc1 | > 42 µM (inactive) |
| COc1ccccc1C(=O)NC(=O)COC(=O)Cc1ccccc1[N+](=O)[O-] | > 42 µM (inactive) |
| CCN1C(=S)N[C@@H](c2cccs2)C(C(=O)OC)=C1C | > 42 µM (inactive) |
| CCOC(=O)CS(=O)(=O)c1ccc2ccccc2c1 | > 42 µM (inactive) |
| Cc1ccc(S(=O)(=O)N2CCOCC2)cc1NC(=O)COC(=O)CNC(=O)c1ccccc1 | > 42 µM (inactive) |
| CSCC[C@H](NC(=O)CC(C)(C)C)c1nc2ccccc2[nH]1 | > 42 µM (inactive) |
| CCOc1ccc(C(=O)Nc2ccc(N3CCN(C)CC3)cc2)cc1[N+](=O)[O-] | > 42 µM (inactive) |
| Nc1nc(CSc2nnnn2-c2ccc(Cl)cc2)nc(N2CCOCC2)n1 | > 42 µM (inactive) |
| N=c1n(CCCOc2ccc(Br)cc2)c2ccccc2n1CC(N)=O | > 42 µM (inactive) |
| CNC(=O)NNC(=O)c1csc(-c2ccc(C(F)(F)F)cc2Cl)n1 | > 42 µM (inactive) |
| O=C(COC(=O)c1ccc([N+](=O)[O-])s1)c1ccc[nH]1 | > 42 µM (inactive) |
| CC(C)(CNC(=O)c1cccs1)CNC(=O)c1cccs1 | > 42 µM (inactive) |
| COC(=O)c1[nH]c2cc(C)ccc2c1NC(=O)CN1CCN(c2ccccc2OC)CC1 | > 21 µM (inactive) |
| O=C1c2ccccc2C(=O)N1CCSc1ccccc1 | > 42 µM (inactive) |
| CC1(C(=O)Nc2cccc(-n3cnnn3)c2)Cc2ccccc2C(=O)O1 (configuration not stated) | > 42 µM (inactive) |
| COc1ccccc1N1CCN(C(=O)C2CCN(S(=O)(=O)c3ccc(C)cc3)CC2)CC1 | > 42 µM (inactive) |
